Molecules are shown by their SMILES.

Sequence of CSF-1R (P07333 20-972): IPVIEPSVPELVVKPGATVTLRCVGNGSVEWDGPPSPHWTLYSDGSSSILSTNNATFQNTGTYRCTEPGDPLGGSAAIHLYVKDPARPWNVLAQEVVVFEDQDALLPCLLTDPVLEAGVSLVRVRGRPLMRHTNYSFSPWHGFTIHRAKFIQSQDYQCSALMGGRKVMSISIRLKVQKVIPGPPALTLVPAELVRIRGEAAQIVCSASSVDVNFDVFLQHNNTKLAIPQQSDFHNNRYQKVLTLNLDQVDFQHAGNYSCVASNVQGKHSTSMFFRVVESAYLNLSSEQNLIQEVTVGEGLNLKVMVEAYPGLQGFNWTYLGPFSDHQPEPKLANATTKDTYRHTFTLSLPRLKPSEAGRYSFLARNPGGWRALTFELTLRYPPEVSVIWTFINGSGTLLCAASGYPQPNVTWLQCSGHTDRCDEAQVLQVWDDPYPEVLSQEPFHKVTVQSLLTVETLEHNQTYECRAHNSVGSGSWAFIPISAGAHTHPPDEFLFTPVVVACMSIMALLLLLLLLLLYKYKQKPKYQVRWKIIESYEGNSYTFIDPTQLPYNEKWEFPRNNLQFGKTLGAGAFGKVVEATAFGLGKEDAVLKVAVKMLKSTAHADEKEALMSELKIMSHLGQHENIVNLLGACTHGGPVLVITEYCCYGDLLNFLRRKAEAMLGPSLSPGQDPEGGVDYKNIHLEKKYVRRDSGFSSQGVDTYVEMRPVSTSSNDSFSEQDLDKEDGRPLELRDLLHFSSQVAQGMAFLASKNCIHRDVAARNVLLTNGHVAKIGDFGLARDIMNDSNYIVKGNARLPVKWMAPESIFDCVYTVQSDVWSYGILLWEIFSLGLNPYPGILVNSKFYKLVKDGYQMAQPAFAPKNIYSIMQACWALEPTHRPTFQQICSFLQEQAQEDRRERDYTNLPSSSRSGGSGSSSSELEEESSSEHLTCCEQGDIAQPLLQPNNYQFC

For one assay, the target named is CSF-1R (Homo sapiens, UniProt P07333). As to the kind of experiment: Peptide (non-phosphorylated) assay, fluorescence polarization competition immunoassay. Format: biochemical. Conditions: 0.7 nM CSF-1R, 308 μM SYEGNSYTFIDPTQ peptide, 1 mM ATP, 80 min; mean of at least three determinations; read-out: c-fms Peptide IC50. The protocol:
The kinase reaction was initiated by adding 1 μL of 10 mM ATP in assay buffer. […] Positive and negative control wells were included on each plate, where 4% DMSO in assay buffer was substituted for the compound; in addition, positive control wells received 1.2 μL of 50 mM EDTA before the start of the reaction.
The plates were covered and incubated at room temperature for 80 min. Reactions were stopped by addition of 1.2 μL of 50 mM EDTA. Each well then received 10 μL of a 1:1:3 mixture of 10× anti-phosphotyrosine antibody, 10×PTK green tracer, and FP dilution buffer, respectively (Cat. # P2837, Invitrogen, Carlsbad, Calif.). The plates were covered, incubated for 30 min at room temperature, and the fluorescence polarization was read on an Analyst plate reader (Molecular Devices).
(In general: Polarisation of emitted light reports the rotation of a fluorescent probe.)
Broadly, the IC50 is the midpoint of a concentration-inhibition curve. For the molecule `CCOC(=O)CN1CCC(c2ccc(Nc3ncc4c(=O)c(C(=O)NOC)cn(-c5ccc6c(c5)CCC6)c4n3)cc2)CC1` [Cpd 218, {4-[4-(8-indan-5-yl-6-methoxycarbamoyl-5-oxo-5,8-dihydro-pyrido[2,3-d]pyrimidin-2-ylamino)-phenyl]-piperidin-1-yl}-acetic acid ethyl ester], the IC50 came to 1.2 nM.
For `CCc1ccc(-n2cc(C(=O)NOC)c(=O)c3cnc(Nc4ccc(CCN5CCCC(F)(F)C5)cc4)nc32)cc1` [Cpd 232, 2-{4-[2-(3,3-difluoro-piperidin-1-yl)-ethyl]-phenylamino}-8-(4-ethyl-phenyl)-5-oxo-5,8-dihydro-pyrido[2,3-d]pyrimidine-6-carboxylic acid methoxy-amide], the IC50 was 0.72 nM.
The same measure, in the same setting: the same measure for `CCc1ccc(-n2cc(C(=O)NOC)c(=O)c3cnc(Nc4ccc(C5CCCCN5CC)cc4)nc32)cc1` (centres unmarked) [Cpd 245, 8-(4-ethyl-phenyl)-2-[4-(1-ethyl-piperidin-2-yl)-phenylamino]-5-oxo-5,8-dihydro-pyrido[2,3-d]pyrimidine-6-carboxylic acid methoxy-amide]: 0.29 nM; for `CONC(=O)c1cn(-c2ccc3c(c2)CCC3)c2nc(Nc3cccc(N4CC(C)NC(C)C4)c3)ncc2c1=O` (centres unmarked) [Cpd 195, 2-[3-(3,5-dimethyl-piperazin-1-yl)-phenylamino]-8-indan-5-yl-5-oxo-5,8-dihydro-pyrido[2,3-d]pyrimidine-6-carboxylic acid methoxy-amide]: 0.96 nM.
The same measure, in the same setting: the same measure for `CONC(=O)c1cn(-c2ccc(OC(F)(F)F)cc2)c2nc(Nc3ccc(C4CCNCC4)cc3)ncc2c1=O` [Cpd 176, 5-oxo-2-(4-piperidin-4-yl-phenylamino)-8-(4-trifluoromethoxyphenyl)-5,8-dihydro-pyrido[2,3-d]pyrimidine-6-carboxylic acid methoxy-amide]: 0.59 nM; for `CONC(=O)c1cn(-c2ccc3c(c2)CCC3)c2nc(Nc3cccc(S(=O)(=O)CCN(C)C)c3)ncc2c1=O` [Cpd 230, 2-[3-(2-dimethylamino-ethanesulfonyl)-phenylamino]-8-indan-5-yl-5-oxo-5,8-dihydro-pyrido[2,3-d]pyrimidine-6-carboxylic acid methoxy-amide]: 1.1 nM; for `COCCOc1ccc(Nc2ncc3c(=O)c(C(=O)NOC)cn(-c4ccc5c(c4)CCC5)c3n2)cc1` [Cpd 258, 8-indan-5-yl-2-[4-(2-methoxy-ethoxy)-phenylamino]-5-oxo-5,8-dihydro-pyrido[2,3-d]pyrimidine-6-carboxylic acid methoxy-amide]: 0.94 nM.
The same measure, in the same setting: next, `CONC(=O)c1cn(-c2ccc(C)c(C)c2)c2nc(Nc3ccc(CCN4CCCC4)cc3)ncc2c1=O` [Cpd 51, 8-(3,4-dimethyl-phenyl)-5-oxo-2-[4-(2-pyrrolidin-1-yl-ethyl)-phenylamino]-5,8-dihydro-pyrido[2,3-d]pyrimidine-6-carboxylic acid methoxy-amide]: 0.63 nM.
Turning to `CCc1ccc(-n2cc(C(=O)NOC)c(=O)c3cnc(Nc4ccccc4)nc32)cc1` [Cpd 316, 8-(4-ethyl-phenyl)-5-oxo-2-phenylamino-5,8-dihydro-pyrido[2,3-d]pyrimidine-6-carboxylic acid methoxy-amide], the IC50 turned out to be 1.8 nM.
With `C#Cc1ccc(-n2cc(C(=O)NOC)c(=O)c3cnc(Nc4ccc(CCN5CCCC5)cc4)nc32)cc1` [Cpd 32, 8-(4-ethynyl-phenyl)-5-oxo-2-[4-(2-pyrrolidin-1-yl-ethyl)-phenylamino]-5,8-dihydro-pyrido[2,3-d]pyrimidine-6-carboxylic acid methoxy-amide], the IC50 was 3.7 nM.
Take `CCc1ccc(-n2cc(C(=O)NOC)c(=O)c3cnc(Nc4ccc(-n5cccc5)cc4)nc32)cc1` [Cpd 317, 8-(4-ethyl-phenyl)-5-oxo-2-(4-pyrrol-1-yl-phenylamino)-5,8-dihydro-pyrido[2,3-d]pyrimidine-6-carboxylic acid methoxy-amide]: the IC50 stood at 5.5 nM.
On the same count and under the same terms, the same measure for `CONC(=O)c1cn(-c2ccc3c(c2)CCC3)c2nc(Nc3cccc(N4CCN(S(C)(=O)=O)CC4)c3)ncc2c1=O` [Cpd 201, 8-indan-5-yl-2-[3-(4-methanesulfonyl-piperazin-1-yl)-phenylamino]-5-oxo-5,8-dihydro-pyrido[2,3-d]pyrimidine-6-carboxylic acid methoxy-amide]: 1.8 nM; for `CONC(=O)c1cn(-c2ccc3c(c2)CCC3)c2nc(Nc3ccc(CCN4CCC[C@@H]4CO)cc3)ncc2c1=O` [Cpd 101, (R)-2-{4-[2-(2-hydroxymethyl-pyrrolidin-1-yl)-ethyl]-phenylamino}-8-indan-5-yl-5-oxo-5,8-dihydro-pyrido[2,3-d]pyrimidine-6-carboxylic acid methoxy-amide]: 0.55 nM; for `CONC(=O)c1cn(-c2ccc(OC(F)(F)F)cc2)c2nc(Nc3ccc(C4CCN(C)CC4)cc3)ncc2c1=O` [Cpd 159, 2-[4-(1-methylpiperidin-4-yl)-phenylamino]-5-oxo-8-(4-trifluoromethoxyphenyl)-5,8-dihydropyrido[2,3-d]pyrimidine-6-carboxylic acid methoxy-amide]: 0.66 nM.
The same measure, in the same setting: the same measure for `CCN1CC[C@H](Oc2cccc(Nc3ncc4c(=O)c(C(=O)NOC)cn(-c5ccc6c(c5)CCC6)c4n3)c2)C1` [Cpd 263, 2-{3-[(3S)-(1-ethyl-pyrrolidin-3-yloxy)]-phenylamino}-8-indan-5-yl-5-oxo-5,8-dihydro-pyrido[2,3-d]pyrimidine-6-carboxylic acid methoxy-amide]: 0.56 nM; for `CC(C)ONC(=O)c1cn(C2CCCCC2)c2nc(Nc3ccc(CCN4CCCC4)cc3)ncc2c1=O` [Cpd 16, 8-cyclohexyl-5-oxo-2-[4-(2-pyrrolidin-1-yl-ethyl)-phenylamino]-5,8-dihydro-pyrido[2,3-d]pyrimidine-6-carboxylic acid isopropoxy-amide]: 0.64 nM.
For `CONC(=O)c1cn(C2CCCC2)c2nc(Nc3ccc(C4CCN(C(C)=O)CC4)cc3)ncc2c1=O` [Cpd 46, 2-[4-(1-acetyl-piperidin-4-yl)-phenylamino]-8-cyclopentyl-5-oxo-5,8-dihydro-pyrido[2,3-d]pyrimidine-6-carboxylic acid methoxy-amide], the half-inhibitory concentration (IC50) is 2.6 nM.
On the same count and under the same terms, next, `CCc1ccc(-n2cc(C(=O)NOC)c(=O)c3cnc(Nc4ccc(O[C@@H]5O[C@H](CO)[C@@H](O)[C@H](O)[C@@H]5O)cc4)nc32)cc1` [Cpd 296, 8-(4-ethyl-phenyl)-5-oxo-2-{4-[(2S,3S,4S,5S,6R)(3,4,5-trihydroxy-6-hydroxymethyl-tetrahydro-pyran-2-yloxy)]-phenylamino}-5,8-dihydro-pyrido[2,3-d]pyrimidine-6-carboxylic acid methoxy-amide]: 0.8 nM; `CCc1ccc(-n2cc(C(=O)NOC3CCCC3)c(=O)c3cnc(Nc4ccc(CCN5CCN(C)CC5)cc4)nc32)cc1` [Cpd 92, 8-(4-ethyl-phenyl)-2-{4-[2-(4-methyl-piperazin-1-yl)-ethyl]-phenylamino}-5-oxo-5,8-dihydro-pyrido[2,3-d]pyrimidine-6-carboxylic acid cyclopentyloxy-amide]: 4.9 nM.
The same measure, in the same setting: next, `CN1CCN(c2ccc(Nc3ncc4c(=O)c(C(N)=O)cn(Cc5ccccc5)c4n3)cc2)CC1` [Cpd 114, 8-benzyl-2-[4-(4-methyl-piperazin-1-yl)-phenylamino]-5-oxo-5,8-dihydro-pyrido[2,3-d]pyrimidine-6-carboxylic acid amide]: 9.6 nM.
For the molecule `CCc1ccc(-n2cc(C(=O)NOC)c(=O)c3cnc(Nc4ccc5[nH]ccc5c4)nc32)cc1` [Cpd 285, 8-(4-ethyl-phenyl)-2-(1H-indol-5-ylamino)-5-oxo-5,8-dihydro-pyrido[2,3-d]pyrimidine-6-carboxylic acid methoxy-amide], the IC50 worked out at 0.8 nM.
On the same count and under the same terms, the same measure for `CONC(=O)c1cn(C2CCCC2)c2nc(Nc3ccc(CCN4CCCC4)cc3)ncc2c1=O` [Cpd 39, 8-cyclopentyl-5-oxo-2-[4-(2-pyrrolidin-1-yl-ethyl)-phenylamino]-5,8-dihydro-pyrido[2,3-d]pyrimidine-6-carboxylic acid methoxy-amide]: 1.1 nM; for `CNC(=O)c1cn(-c2ccc3c(c2)CCC3)c2nc(Nc3cccc(CCCN(C)C)c3)ncc2c1=O` [Cpd 116, 2-[3-(3-dimethylamino-propyl)-phenylamino]-8-indan-5-yl-5-oxo-5,8-dihydro-pyrido[2,3-d]pyrimidine-6-carboxylic acid methylamide]: 5.3 nM.
On the same count and under the same terms, next, `CC(C)ONC(=O)c1cn(-c2ccc3c(c2)CCC3)c2nc(Nc3ccc(CCN4CCN(C)CC4)cc3)ncc2c1=O` [Cpd 63, 8-indan-5-yl-2-{4-[2-(4-methyl-piperazin-1-yl)-ethyl]-phenylamino}-5-oxo-5,8-dihydro-pyrido[2,3-d]pyrimidine-6-carboxylic acid isopropoxy-amide]: 0.52 nM.
Same read-out and setting: next, `CONC(=O)c1cn(-c2ccc3c(c2)CCC3)c2nc(Nc3ccc(CCS(=O)(=O)NC(C)C)cc3)ncc2c1=O` [Cpd 77, 8-indan-5-yl-2-[4-(2-isopropylsulfamoyl-ethyl)-phenylamino]-5-oxo-5,8-dihydro-pyrido[2,3-d]pyrimidine-6-carboxylic acid methoxy-amide]: 0.95 nM.

The assay is the same for the next values; noted with them: c-fms Peptide IC50, 0.7 nM CSF-1R, 308 μM SYEGNSYTFIDPTQ peptide, 1 mM ATP, 80 min; mean of at least three determinations.
In the case of `CONC(=O)c1cn(-c2ccc3c(c2)CCC3)c2nc(Nc3ccc(CCN4CCC(F)(F)CC4)cc3)ncc2c1=O` [Cpd 234, 2-{4-[2-(4,4-difluoro-piperidin-1-yl)-ethyl]-phenylamino}-8-indan-5-yl-5-oxo-5,8-dihydro-pyrido[2,3-d]pyrimidine-6-carboxylic acid methoxy-amide], the IC50 was 1.7 nM.

(Values after US20080114007A1 (priority 2006, published 2008).)
